Converted amounts (≈) assume the structure as drawn. “And” between values parts separate entries of the source, which are not always exact repeats. Identical values can stand only once. Like-named read-outs stand apart in the source and are kept apart here.
Key:
in vitro = settings: human, MRC-5 fibroblasts
Experimental: Proliferation assays using bloodstream form T. brucei brucei and human MRC-5 fibroblasts were conducted using a modification of the cell viability assay as previously reported.[27],[39]
MRC-5 cells (2000 cells per well) were seeded in 200 μL of DMEM, 10% FCS, and allowed to adhere overnight. One microliter of test compound was added to each well on the day of assay initiation.
The final DMSO level was 0.5% in all cases.

[1] = Brain tissue binding by equilibrium dialysis; assay type: in vitro ADME; settings: Sprague-Dawley, brain homogenate; rat (male SD rat); read-out: brain tissue binding (rat), Fu
Experimental: In brief, a 96-well equilibrium dialysis apparatus was used to determine the free fraction in the brain for the test compound (HT Dialysis LLC, Gales Ferry, CT). Membranes (12–14 kDa A cutoff) were conditioned in deionized water for 60 min, followed by conditioning in 80:20 deionized water:ethanol for 20 min and then rinsed in artificial cerebrospinal fluid (CSF) before use. Mouse brain was removed from the freezer and allowed to thaw on the day of experiment. […] Diluted brain homogenate was spiked with the test compound (10 ug/g), and 150 μL aliquots (n = 6 replicate determinations) loaded into the 96-well equilibrium dialysis plate. Dialysis vs artificial CSF (150 μL) was carried out for 5 h in a temperature controlled incubator at ca. 37 °C (Stuart scientific Ltd., UK) using an orbital microplate shaker at 125 rpm (Stuart scientific Ltd., UK). […] All samples were analyzed by means of UPLC/MS/MS on a Quattro Premier XE mass spectrometer (Waters Corporation, USA). The unbound fraction was determined as the ratio of the peak area in artificial CSF to that in brain, with correction for dilution factor according to eq 1.[42] […] 1 where D = dilution factor in brain homogenate and Fu,apparent is the measured free fraction of diluted brain homogenate.

[2] = Aqueous kinetic solubility by laser nephelometry; assay type: physicochemical; settings: aqueous medium, Table 7
Experimental: (§1) The software package StarDrop by Optibrium was used to calculate physicochemical parameters including log P, molecular weight, and polar surface area (PSA). The aqueous kinetic solubility of the compounds was measured using laser nephelometry as previously described.[40] The plasma protein binding of the compounds was determined by the equilibrium dialysis method.[12]

T. b. brucei GVR35 = settings: 12.5 mg/kg IP b.i.d. for 5 d from 21 d post infection, majority of mice
Experimental: For stage 2 of infection, the standard model is T. b. brucei GVR35 in which CNS infection is allowed to develop in female NMRI mice before treatment starts, requiring about 21 d.
These were carried out as previously described[27],[32] at the dose level presented and using the same dose formulation as the pharmacokinetic studies. HRN mice were used under the same infection and monitoring protocol as described for female NMRI mice.

[3] = Maximum tolerated dose (MTD) studies
[4] = test system: bloodstream form T. brucei brucei; experiment: T. b. brucei whole cell parasite (trypanosome growth) assay; assay type: cell-based, Trypanosoma brucei brucei
Experimental: This was conducted as previously described.[27] Cell culture plates were stamped with 1 μL of an appropriate stock concentration of test compound, followed by addition of 200 μL of trypanosome culture (HMI9-T, 10% FCS) to each well at a density of 2000 cells per well (except column 12 receiving media only). […] Potency was carried out using 10-point dose–response curves.

[5] = Plasma protein binding by equilibrium dialysis, mouse; assay type: in vitro ADME; settings: read-out: plasma protein binding, Fu (fraction unbound)
Experimental: as §1

[6] = Microsomal intrinsic clearance (Clint), mouse; assay type: in vitro ADME; settings: mouse liver microsomes, 0.5 μM compound
Experimental: Each test compound (0.5 μM) was incubated with pooled female CDI mouse liver microsomes, pooled male Sprague–Dawley rat microsomes, or pooled mixed gender human liver microsomes (Tebu-Bio, UK; 0.5 mg/mL 50 mM potassium phosphate buffer, pH 7.4) and the reaction started with addition of excess NADPH (8 mg/mL, 50 mM potassium phosphate buffer, pH 7.4). Immediately, at time zero, then at 3, 6, 9, 15, and 30 min, an aliquot (50 μL) of the incubation mixture was removed and mixed with acetonitrile (100 μL) to stop the reaction. Internal standard was added to all samples, and the samples were centrifuged at 1825g for 10 min to sediment precipitated protein. The plates were then sealed prior to UPLC/MS/MS analysis using a Quattro Premier XE (Waters Corporation, USA).
XLfit (IDBS, UK) was used to calculate the exponential decay and consequently the rate constant (k) from the ratio of peak area of test compound to internal standard at each time point.

[7] = In vivo mouse pharmacokinetics; settings: for Cmax / Tmax / half-life / AUC(0-t) at 8 h / AUC(0-t): female, mouse, in vivo, 10 mg/kg, NMRI mice; for AUC(0-t) at 8 h: read-out: AUC0–8; for AUC(0-t): read-out: AUC0–8 (converted)
Experimental: Each compound was dosed as a bolus solution intraperitoneally at 10 mg free base/kg (dose volume, 10 mL/kg; dose vehicles used, 10% DMSO; 40% PEG400; 50% Milli-Q water or 5% DMSO; 40% PEG400; 55% saline) to female HRN (1 only) or NMRI mice (n = 3) or dosed orally by gavage as a solution at 10 mg free base/kg (dose volume, 10 mL/kg; dose vehicle, 10% DMSO; 40% PEG400; 50% Milli-Q water) to female NMRI mice (n = 3). Female NMRI mice were chosen, as these represent the sex and strain used for the stage 1 and stage 2 HAT efficacy models. Blood samples were taken from each mouse at 5 (IP only), 15, and 30 min, 1, 2, 4, 6, and 8 h post dose, mixed with two volumes of distilled water, and stored frozen until UPLC/MS/MS analysis. Pharmacokinetic parameters were derived from noncompartmental analysis of the blood concentration time curve using PK solutions software v 2.0 (Summit Research Services, USA).

Structure (SMILES): CNC(=O)[C@H]1Cc2ccccc2N1C(=O)Cc1ccc(F)cc1 [Compound 47, (R)-1-(2-(4-Fluorophenyl)acetyl)-N-methylindoline-2-carboxamide]
- EC50 at 69 h (in vitro): > 50000 nM
- fraction unbound at 5 h, 10 ug/g [1]: 0.43
- solubility [2]: 64 µg/mL (≈ 205 µM)
- relapse with parasitaemia later than vehicle dosed infected mice (T. b. brucei GVR35): 6 to 13 days
- tolerability ([3]; 15 mg/kg IP b.i.d., female NMRI mice (47: for 3 days)): well tolerated
- tolerability ([3]; 25 mg/kg after a single dose, female NMRI mice): clinical signs of toxicity
- Hill slope ([4]; T. brucei EC50 curve): 2.8
- EC50 ([4]; Trypanosoma brucei, mean of two or more determinations, 69 h + 4 h resazurin, read-out: T. b. brucei EC50): 50 nM
- fraction unbound [5]: 0.59
- mouse microsomal intrinsic clearance [6]: 1.9 mL min^–1 g^–1 and 1.9/ND mL min^–1 g^–1
- higher AUC compared to 1 ([7]; IP, female NMRI mice): 1.5–6.5 fold
- Cmax ([7]; IP): 2300 ng/mL and 7.4 µM
- Tmax ([7]; IP): 15 min
- half-life ([7]; IP): 30 min
- AUC(0-t) at 8 h ([7]; IP): 9.1 µM·h
- AUC(0-t) ([7]; IP): 2830 ng·h/mL
- Cmax ([7]; PO): 750 ng/mL and 2.4 µM
- Tmax ([7]; PO): 30 min
- half-life ([7]; PO): 36 min
- AUC(0-t) at 8 h ([7]; PO): 3.3 µM·h
- AUC(0-t) ([7]; PO): 1020 ng·h/mL

— PMC4601051, “Discovery of Indoline-2-carboxamide Derivatives as a New Class of Brain-Penetrant Inhibitors of Trypanosoma brucei” (Journal of Medicinal Chemistry, 2015)
